Here are results for 21 compounds from PubChem BioAssay AID328 (DTP/NCI, 2004).

The subject of the test is BDF1 mice, P388 leukemia ip, median survival T/C. The experiment in a line: NCI In Vivo Anticancer Drug Screen. Data for tumor model P388 Leukemia (intraperitoneal) in B6D2F1 (BDF1) mice. Conditions: endpoint: median survival time, higher = longer survival. An outline of the steps: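 Each value expresses how treatment altered survival: treated-mouse outcome over vehicle-mouse outcome, both groups bearing the transplanted tumour.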

[1] abbreviates: dose: 100.0 mg/kg/injection, schedule: Q01DX009 (ip), vehicle: saline with Tween-80.
[2] abbreviates: dose: 100.0 mg/kg/injection, schedule: Q04DX003 (ip), vehicle: saline with Tween-80.
[3] abbreviates: dose: 200.0 mg/kg/injection, schedule: Q01DX009 (ip), vehicle: saline with Tween-80.
Setting [4] is: dose: 200.0 mg/kg/injection, schedule: Q04DX003 (ip), vehicle: saline with Tween-80.
Where [5] appears, read: dose: 400.0 mg/kg/injection, schedule: Q01DX009 (ip), vehicle: saline with Tween-80.
[6] abbreviates: dose: 400.0 mg/kg/injection, schedule: Q04DX003 (ip), vehicle: saline with Tween-80.
The mark [7] stands for this setting: dose: 50.0 mg/kg/injection, schedule: Q01DX009 (ip), vehicle: saline.
[8] abbreviates: dose: 100.0 mg/kg/injection, schedule: Q01DX009 (ip), vehicle: saline.
The mark [9] stands for this setting: dose: 200.0 mg/kg/injection, schedule: Q01DX009 (ip), vehicle: saline.
The mark [10] stands for this setting: dose: 25.0 mg/kg/injection, schedule: Q04DX003 (ip), vehicle: saline.
Where [11] appears, read: dose: 100.0 mg/kg/injection, schedule: Q04DX003 (ip), vehicle: saline.
Where [12] appears, read: dose: 200.0 mg/kg/injection, schedule: Q04DX003 (ip), vehicle: saline.
Setting [13] is: dose: 400.0 mg/kg/injection, schedule: Q04DX003 (ip), vehicle: saline.
[14] abbreviates: dose: 50.0 mg/kg/injection, schedule: Q01DX009 (ip), vehicle: saline with Tween-80.

Where “and” joins values, the source holds several entries; their conditions need not be identical. Identical values can stand only once. Inconclusive results and toxic doses are left out.

Regarding `CC1=C/C(O)CC(=O)Cc2nc(co2)C(=O)N2CCC=C2C(=O)OC(C(C)C)C(C)/C=C\C(=O)NC/C=C\1` (configuration not stated), the T/C is, setting by setting: (dose: 100.0 mg/kg/injection, schedule: Q01DX009 (ip), vehicle: Klucel (hydroxypropylcellulose) (HPC)) 118 % of control; (dose: 0.5 micrograms/kg/injection, schedule: Q01DX009 (ip), vehicle: saline) 105 % of control; (dose: 1.0 micrograms/kg/injection, schedule: Q01DX009 (ip), vehicle: saline) 101 % of control; (dose: 2.0 micrograms/kg/injection, schedule: Q01DX009 (ip), vehicle: saline) 108 % of control; (dose: 4.0 micrograms/kg/injection, schedule: Q01DX009 (ip), vehicle: saline) 101 % of control.
On to `Cc1ccc(CCCCCCCCCCCC(=O)O)cc1`, for which the T/C was 96 % of control under setting [1]; 95 % of control under setting [2]; 92 % of control under setting [3]; 100 % of control under setting [4]; 107 % of control under setting [5]; 110 % of control under setting [6].
`CC1=CC=CC(=O)C1(C)C(Cl)Cl` (configuration not stated): the T/C runs as follows: under setting [2], 110 % of control; under setting [4], 115 % of control; under setting [6], 120 % of control.
As for `CCOC(=O)c1cc(-c2ccccc2)[nH]c1-c1ccccc1`, the T/C reads like this: under setting [7], 96 % of control; under setting [8], 100 % of control; under setting [9], 98 % of control.
For the compound `c1ccc(C2=C([P+](c3ccccc3)(c3ccccc3)c3ccccc3)CCN2)cc1`, the T/C (dose: 12.5 mg/kg/injection, schedule: Q01DX009 (ip), vehicle: saline with Tween-80) was 100 % of control.
On to `ClCCN(CCCl)CCNc1ccnc2cc(Cl)ccc12`, for which the T/C is, setting by setting: (dose: 0.13 mg/kg/injection, schedule: Q01DX009 (ip), vehicle: saline) 105 % of control; (dose: 0.5 mg/kg/injection, schedule: Q01DX009 (ip), vehicle: saline) 100 % of control; (dose: 1.0 mg/kg/injection, schedule: Q04DX003 (ip), vehicle: saline) 172 % of control; (dose: 1.32 mg/kg/injection, schedule: Q01DX009 (ip), vehicle: saline) 154 % of control; (dose: 2.0 mg/kg/injection, schedule: Q01DX009 (ip), vehicle: saline) 154 % of control; (dose: 2.0 mg/kg/injection, schedule: Q04DX003 (ip), vehicle: saline) 109 % of control. The T/C is 181 % of control (dose: 3.0 mg/kg/injection, schedule: Q01DX009 (ip), vehicle: saline); 154 % of control (dose: 4.0 mg/kg/injection, schedule: Q04DX003 (ip), vehicle: saline); 159 % of control (dose: 6.0 mg/kg/injection, schedule: Q04DX003 (ip), vehicle: saline); 163 % of control (dose: 12.5 mg/kg/injection, schedule: Q04DX003 (ip), vehicle: saline); 86 % of control under setting [10].
On to `C#CC(C)(C)OCC(O)CCl` (configuration not stated), for which the T/C was 95 % of control under setting [7]; 100 % of control under setting [8]; 91 % of control under setting [11]; 91 % of control under setting [9]; 100 % of control under setting [12]; 112 % of control under setting [13].
In the case of `CN(C)C(=O)c1cccc(N)c1`, the T/C was 100 % of control under setting [8]; 95 % of control under setting [9]; 100 % of control (dose: 400.0 mg/kg/injection, schedule: Q01DX009 (ip), vehicle: saline).
As to `COc1ccc(N2CCN(c3ccc([N+](=O)[O-])c4no[n+]([O-])c34)CC2)cc1`, the T/C (dose: 15.0 mg/kg/injection, schedule: Q04DX003 (ip), vehicle: saline with Tween-80) is 101 % of control; the T/C (dose: 30.0 mg/kg/injection, schedule: Q04DX003 (ip), vehicle: saline with Tween-80) is 100 % of control; the T/C (dose: 60.0 mg/kg/injection, schedule: Q04DX003 (ip), vehicle: saline with Tween-80) was 104 % of control.
For the compound `COc1ccc(/C(=N/N)C(C)(C)C)cc1`, under setting [14], the T/C is 88 % of control.
Consider `O=C(/C=C/c1ccc([N+](=O)[O-])cc1)c1ccc(Cl)cc1`, for which the T/C by setting is: under setting [1], 90 % of control; under setting [2], 95 % of control; under setting [3], 90 % of control; under setting [4], 90 % of control; under setting [5], 100 % of control; under setting [6], 100 % of control.
For `CCOC(=O)c1c(-c2ccccc2)cn2c1OC(C)CC2(C)C` (configuration not stated), the T/C is, setting by setting: (dose: 50.0 mg/kg/injection, schedule: Q01DX001 (ip), vehicle: saline sonified) 100 % of control; (dose: 100.0 mg/kg/injection, schedule: Q01DX001 (ip), vehicle: saline sonified) 100 % of control; (dose: 200.0 mg/kg/injection, schedule: Q01DX001 (ip), vehicle: saline sonified) 95 % of control.
`CC(=O)OCc1ccc(Cl)cc1`: the T/C was 116 % of control under setting [14] and 112 % of control under setting [1].
On to `NCCNc1c[nH]c(=O)[nH]c1=O`, for which the T/C runs as follows: under setting [14], 110 % of control; under setting [1], 103 % of control; under setting [3], 103 % of control.
Turning to `O=c1oc2ccccc2n1Cc1ccc(Cl)cc1`, the T/C (dose: 25.0 mg/kg/injection, schedule: Q01DX005 (ip), vehicle: saline with Tween-80) is 92 % of control; the T/C (dose: 50.0 mg/kg/injection, schedule: Q01DX005 (ip), vehicle: saline with Tween-80) was 99 % of control; the T/C (dose: 200.0 mg/kg/injection, schedule: Q01DX005 (ip), vehicle: saline with Tween-80) is 94 % of control.
Take `CNC(=O)OCc1c(COC(=O)NC)c(-c2ccc(Cl)cc2)n2c1CCC2`: where the note is “dose: 50.0 mg/kg/injection, schedule: Q01DX009 (ip), vehicle: Klucel (hydroxypropylcellulose) (HPC)”, the T/C is 96 % of control.
With `O=[N+]([O-])c1ccc(C(O)Nc2nccs2)o1` (configuration not stated), the T/C is, setting by setting: (dose: 25.0 mg/kg/injection, schedule: Q04DX003 (ip), vehicle: saline with Tween-80) 95 % of control; (dose: 50.0 mg/kg/injection, schedule: Q04DX003 (ip), vehicle: saline with Tween-80) 100 % of control and 104 % of control; under setting [2], 100 % of control.
Turning to `CN(C)Cc1c[nH]c2nccnc12`, the T/C by setting is: (dose: 3.12 mg/kg/injection, schedule: Q01DX009 (ip), vehicle: saline) 95 % of control; (dose: 6.25 mg/kg/injection, schedule: Q01DX009 (ip), vehicle: saline) 109 % of control; (dose: 12.5 mg/kg/injection, schedule: Q01DX009 (ip), vehicle: saline) 101 % of control; (dose: 25.0 mg/kg/injection, schedule: Q01DX009 (ip), vehicle: saline) 93 % of control; under setting [10], 99 % of control; under setting [7], 100 % of control. In addition, the T/C runs as follows: (dose: 50.0 mg/kg/injection, schedule: Q04DX003 (ip), vehicle: saline) 100 % of control and 101 % of control; under setting [8], 100 % of control; under setting [11], 92 % of control and 100 % of control.
In the case of `CC(OC(=O)Nc1cccc(Cl)c1)C(=O)O` (configuration not stated), the T/C is, setting by setting: (dose: 100.0 mg/kg/injection, schedule: Q01DX009 (ip), vehicle: gum acacia) 107 % of control; (dose: 200.0 mg/kg/injection, schedule: Q01DX009 (ip), vehicle: gum acacia) 96 % of control; (dose: 400.0 mg/kg/injection, schedule: Q01DX009 (ip), vehicle: gum acacia) 100 % of control.
Turning to `N=c1ccn(C(=O)C2=Cc3ccccc3OC2)cc1`, the T/C is 88 % of control and 112 % of control (dose: 1.25 mg/kg/injection, schedule: Q01DX009 (ip), vehicle: saline with Tween-80); 96 % of control and 100 % of control (dose: 2.5 mg/kg/injection, schedule: Q01DX009 (ip), vehicle: saline with Tween-80); 92 % of control and 100 % of control and 112 % of control (dose: 5.0 mg/kg/injection, schedule: Q01DX009 (ip), vehicle: saline with Tween-80); 118 % of control (dose: 5.0 mg/kg/injection, schedule: Q04DX003 (ip), vehicle: saline with Tween-80); 95 % of control (dose: 10.0 mg/kg/injection, schedule: Q04DX003 (ip), vehicle: saline with Tween-80); 90 % of control (dose: 20.0 mg/kg/injection, schedule: Q04DX003 (ip), vehicle: saline with Tween-80).
Turning to `CC1(C)C2C=CC1C(CO)(CO)C2` (configuration not stated), the T/C is 100 % of control (dose: 100.0 mg/kg/injection, schedule: Q01DX001 (ip), vehicle: saline); 100 % of control under setting [11]; 104 % of control (dose: 200.0 mg/kg/injection, schedule: Q01DX001 (ip), vehicle: saline); 91 % of control under setting [12]; 108 % of control (dose: 400.0 mg/kg/injection, schedule: Q01DX001 (ip), vehicle: saline); 100 % of control under setting [13].
